Measured values reported in US20100196476A1, “PROCESS FOR THE PREPARATION AND PHARMACEUTICAL FORMULATIONS FOR 4-QUINOLINONES AND QUINOLINES AND USE THEREOF” (FUNDACAO UNIVERSIDADE FEDERAL DE SAO CARLOS, priority 2007, published 2010).

What was measured:
[1] = test system: coagulant serine proteases; assay: initial screening, coagulant activity of snake venoms; type: biochemical, Bothrops jararacussu, B. moojeni, B. alternatus; settings: first screening assay, FIG. 2
Experimental: (§1) This screening was for the venoms of the Bothrops jararacussu, B. moojeni, B. alternatus and B. jararacussu BjussuMP-I snakes to determine promising compounds.
(§2) Aliquots of plasma (0.2 mL) were incubated with venom or venom/inhibitor (50 μL) in varying proportions (m/m) during a period of 30 minutes at 37° C. and the coagulation time was verified. The control tubes included plasma incubated with phosphate buffered saline solution (PBS)+calcium or dimethyl sulphoxide or only the compound.

[2] = test system: venom of B. jararacussu (BjussuSP-I); assay: coagulant activity, B. jararacussu venom; type: biochemical; settings: FIG. 3C
Experimental: as §2

[3] = test system: snake venoms and isolated metalloprotease; assay: proteolytic activity in casein (FIG. 3B); type: biochemical, Bothrops; settings: induced by snake venoms and isolated metalloprotease
[4] = test system: basic Asp49 PLA2s (BthTX-II and CB); assay: phospholipase A2 activity, basic Asp49 PLA2s; type: biochemical, B. jararacussu and C. d. terrificus; settings: compared with pure venoms and acid isoform Asp49 BthA-1-PLA2, FIG. 5C
Experimental: (§3) Indirect haemolytic activity is tested using agarose-erythrocyte-egg yolk gel as a substrate. The compounds are tested following incubation with the pure venoms or PLA2 in varying ratios (m/m).

[5] = test system: venoms and isolated PLA2s; assay: oedema inducing activity in mice; type: in vivo; settings: induced by venoms of B. jararacussu and C. durissus terrificus and isolated PLA2s
Experimental: The oedemas are induced by the direct injection of venom (20 μg) and purified proteins (20 μg) into the right leg of male Swiss mice (18-22 g). Inhibition activity is verified incubating the venom or isolated protein with the inhibitor in varying concentrations (m/m). The control groups are injected with 50 μL of phosphate buffered saline solution (PBS, pH=7.2) alone, dimethyl sulphoxide (DMSO) or the compounds. Oedema progression is assessed through measurement of the […] using a pachymeter (Mitutoyo, Japan) at intervals of 30 and 60 minute after injection.

[6] = test system: snake venoms and isolated serine protease; assay: coagulant activity in human plasma (FIG. 3C); type: biochemical, Bothrops and Crotalus; settings: induced by snake venoms and isolated serine protease
Experimental: as §2

[7] = test system: venom of C. d. terrificus (gyroxin); assay: coagulant activity, C. d. terrificus venom; type: biochemical; settings: FIG. 3C
Experimental: as §2

[8] = test system: venom of B. jararacussu, BjussuSP-I and BjussuMP-I; assay: fibrinogenolytic activity on bovine fibrinogen, SDS-PAGE (FIG. 4A); type: biochemical; settings: enzymes incubated with inhibitor 30 minutes at 37° C., 1:10 by mass
Experimental: Lanes: 1—Fibrinogen+venom of B. jararacussu (4 μg)+2 (40 μg); 2—Fibrinogen+enzyme BjussuSP-I (2 μg)+2 (20 μg); 3—Fibrinogen+BjussuMP-I (2 μg)+2 (20 μg); 4—Fibrinogen control. The enzymes were incubated together with 2 for 30 minutes at 37° C. The results are expressed by the mean±S.D (n=3). (B): Interaction between the venom of the B. jararacussu snake and 2. Samples containing venom/toxin (20 μg) and the […] (600 μg) were incubated for 30 minutes at 37° C. at a ratio of 1:30 (w/w). Lanes: 1—BthTX-I+2; 2—BthTX-II+2; 3—venom of B. jararacussu+2; 4—only BthTX-I; 5—only BthTX-II; 6—only the venom of B. jararacussu.

[9] = test system: venoms and isolated PLA2s; assay: myotoxic activity in mice (plasma CK); type: in vivo; settings: induced by venoms of B. jararacussu and C. durissus terrificus and isolated PLA2s
[10] = test system: venoms and isolated PLA2s; assay: phospholipase A2 activity (indirect haemolytic); type: biochemical; settings: induced by venoms of B. jararacussu and C. durissus terrificus and isolated PLA2s
Experimental: as §3

[11] = test system: venom of Bothrops and the isolated metalloprotease; assay: haemorrhage induced by Bothrops venoms and isolated metalloprotease (FIG. 3A); type: in vivo; settings: venom of Bothrops and Crotalus snakes and isolated metalloprotease
Experimental: FIG. 3A: Effect of compound 2 on the haemorrhage induced by the venom of Bothrops and the isolated metalloprotease. FIG. 3B: Effect of compound 2 on the proteolytic activity induced by the venom of Bothrops and the isolated metalloprotease. FIG. 3C: Effect of the coagulant activity of compound 2 induced by the venoms of Bothrops and Crotalus and the isolated serine protease. The results are expressed by the mean±standard deviation (SD) (n=6).
Therefore, further assays were performed to determine the efficiency of compound 2 for various other activities. FIG. 3A presents the effects of 2 on haemorrhages induced by the different venoms of the Bothrops genus snakes and an isolated metalloprotease.

[12] = test system: haemorrhagic metalloprotease of the venoms; assay: initial screening, haemorrhagic metalloprotease of the venoms; parameters: species or system Bothrops jararacussu, B. moojeni, B. alternatus; settings: first screening assay, FIG. 2
From the text: as §1

[13] = target: Class I metalloprotease neuwiedase (Bothrops pauloensis, UniProt Q9I9R4); type: biochemical, B. neuwiedi
Class I metalloprotease neuwiedase, sequence (Q9I9R4 whole entry, looked up): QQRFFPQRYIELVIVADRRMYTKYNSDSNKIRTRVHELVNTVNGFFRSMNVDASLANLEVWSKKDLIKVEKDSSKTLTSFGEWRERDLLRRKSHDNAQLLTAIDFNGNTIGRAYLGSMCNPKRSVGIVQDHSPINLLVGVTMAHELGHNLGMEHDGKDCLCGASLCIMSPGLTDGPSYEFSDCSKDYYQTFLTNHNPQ

O=c1cc(CO)[nH]c2ccccc12 [Compound 1, 2-hydroxymethyl-1,4-dihydro-4-quinolinone]
inhibition of coagulant serine proteases [1]: partial inhibition

COc1ccc2[nH]c(CO)cc(=O)c2c1 [Compound 2, 2-hydroxymethyl-6-methoxy-1,4-dihydro-4-quinolinone]
action on coagulation [2]: powerful coagulation action
inhibition of proteolytic activity on casein [3]: significantly inhibits
inhibition of coagulant serine proteases [1]: partial inhibition
neutralising PLA2 activity [4]: more efficient
effect on oedema [5]: partially reduced
inhibition of coagulant activity in human plasma [6]: significantly inhibits
action on coagulation [7]: powerful coagulation action
inhibition of fibrinogenolytic activity [8]: inhibition
effect on myotoxicity [9]: partially reduced
effect on activity for phospholipase [10]: partially reduced
effect on haemorrhages induced by venom [11]: inhibits
inhibition of the haemorrhagic metalloprotease of the venoms [12]: potential of inhibiting
inhibition of proteolytic activity [13]: approximately 67%

CCOc1cc(CO)nc2ccc(OC)cc12 [Compound 10, 4-ethoxy-2-hydroxymethyl-6-methoxyquinoline]
inhibition of coagulant serine proteases [1]: partial inhibition

CCOCc1cc(OCC)c2cc(OC)ccc2n1 [Compound 11, 4-ethoxy-2-ethoxymethyl-6-methoxyquinoline]
inhibition of coagulant serine proteases [1]: partial inhibition

O=C(O)c1cn(C2CC2)c2cc(N3CCNCC3)c(F)cc2c1=O [Compound 13, 1-ciclopropyl-6-fluoro-1,4-dihydro-4-oxo-7-(1-piperazinyl)-3-quinolinecarboxylic acid, reference compound]
inhibition of coagulant serine proteases [1]: partial inhibition
